Source: BindingDB's records for doi:10.7270/Q2D798VP (Broad Institute, 2009)
pEC50: −log10 of the molar value.

Biological target: T1, Zinc finger protein mex-5 (Caenorhabditis elegans, UniProt Q9XUB2)
T1 sequence (Q9XUB2 whole entry): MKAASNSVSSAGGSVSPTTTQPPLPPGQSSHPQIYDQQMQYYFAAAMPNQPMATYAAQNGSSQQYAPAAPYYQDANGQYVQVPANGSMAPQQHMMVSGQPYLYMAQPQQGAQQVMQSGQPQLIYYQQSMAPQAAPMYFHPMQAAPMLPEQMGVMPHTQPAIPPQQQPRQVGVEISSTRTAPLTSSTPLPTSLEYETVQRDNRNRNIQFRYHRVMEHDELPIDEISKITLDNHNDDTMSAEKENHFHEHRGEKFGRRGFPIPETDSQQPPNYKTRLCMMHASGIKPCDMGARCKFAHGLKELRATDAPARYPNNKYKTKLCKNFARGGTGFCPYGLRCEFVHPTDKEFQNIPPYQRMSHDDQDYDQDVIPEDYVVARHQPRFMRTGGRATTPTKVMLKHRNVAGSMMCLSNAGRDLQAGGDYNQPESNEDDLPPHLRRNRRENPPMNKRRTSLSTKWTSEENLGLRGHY
Assay: potency of MEX-5 RNA-binding blockers – biochemical, C. elegans, fluorescence polarization, dose response (AID 1960)

SMILES: CCC(=CC=C[C@@H]1C=C[C@@H]2CCC[C@H]2[C@@H]1C(=O)c1ccc[nH]1)[C@@H]1O[C@@H]([C@@H](C)C(=O)O)CC[C@@H]1C [2-(6-{1-ethyl-4-[4-(1H-pyrrol-2-ylcarbonyl)-2,3,3a,4,5,7a-hexahydro-1H-inden-5-yl]-1,3-butadienyl}-5-methyltetrahydro-2H-pyran-2-yl)propanoate]
- pEC50: 5.93

SMILES: COc1ccc(C2C3=C(CCCC3=O)OC(=N)C2C#N)c(OC)c1OC (stereo unspecified) [2-Amino-5-oxo-4-(2,3,4-trimethoxy-phenyl)-5,6,7,8-tetrahydro-4H-chromene-3-carbonitrile]
- pEC50: < 3.52

SMILES: N#CC1C(=N)Oc2cc(O)c(Cl)cc2C1c1ccccc1F (stereo unspecified) [2-Amino-6-chloro-4-(2-fluoro-phenyl)-7-hydroxy-4H-chromene-3-carbonitrile]
- pEC50: < 3.52

SMILES: O=CC(C=Nc1ccccn1)c1nc2ccccc2o1 (stereo unspecified) [2-Benzooxazol-2-yl-3-(pyridin-2-ylamino)-propenal]
- pEC50: < 3.52

SMILES: CN1C(=O)/C(=C/c2ccc(-c3ccccc3[N+](=O)[O-])o2)S/C1=N/c1ccc(Cl)c(C(=O)O)c1 [2-Chloro-5-[3-methyl-5-[1-[5-(2-nitro-phenyl)-furan-2-yl]-meth-(Z)-ylidene]-4-oxo-thiazolidin-(2Z)-ylideneamino]-benzoic acid]
- pEC50: 4.65

SMILES: O=C(CC(=O)c1ccccc1)C(=O)NNC(=O)c1ccccc1[N+](=O)[O-] [2-Nitro-benzoic acid N'-(2-hydroxy-4-oxo-4-phenyl-but-2-enoyl)-hydrazide]
- pEC50: 5.95

SMILES: CC(N=Nc1ccc([N+](=O)[O-])cc1[N+](=O)[O-])c1cc2c(ccc3ccccc32)oc1=O (stereo unspecified) [2-[1-[(2,4-dinitrophenyl)hydrazinylidene]ethyl]-3-benzo[f][1]benzopyranone]
- pEC50: < 3.52

SMILES: Oc1csc(N=NCc2cccs2)n1 [2-[2-(thiophen-2-ylmethylidene)hydrazinyl]-1,3-thiazol-4-one]
- pEC50: < 3.52

SMILES: CCOc1cc(C=C2SC(Nc3ccc(CC)cc3)=NC2=O)ccc1OCC(=O)O [2-[2-ethoxy-4-[(Z)-[2-(4-ethylanilino)-4-oxo-1,3-thiazol-5-ylidene]methyl]phenoxy]acetic acid]
- pEC50: 3.83

SMILES: C=CCn1c(=O)c(=Cc2ccsc2)s/c1=C(\C#N)C(=O)NCCN1CCOCC1 [2-[3-allyl-4-keto-5-(3-thenylidene)thiazolidin-2-ylidene]-2-cyano-N-(2-morpholinoethyl)acetamide]
- pEC50: 4.66

SMILES: Cc1ccc(C(=O)C2C(=O)C(=O)N(Cc3ccco3)C2c2ccc(N(C)C)cc2)o1 (stereo unspecified) [2-[4-(dimethylamino)phenyl]-1-(2-furanylmethyl)-4-hydroxy-3-[(5-methyl-2-furanyl)-oxomethyl]-2H-pyrrol-5-one]
- pEC50: < 3.52

SMILES: O=C(O)COc1ccc(C=Cc2nnc(-c3ccccc3O)[nH]2)cc1 [2-[4-[(E)-2-[(5Z)-5-(6-oxo-1-cyclohexa-2,4-dienylidene)-1,2-dihydro-1,2,4-triazol-3-yl]ethenyl]phenoxy]acetic acid]
- pEC50: 6.02

SMILES: COc1ccc(C2CC(=O)C(=CNCCCO)C(=O)C2)cc1 (stereo unspecified) [2-[(3-hydroxypropylamino)methylidene]-5-(4-methoxyphenyl)cyclohexane-1,3-dione]
- pEC50: 4.42

SMILES: Cc1ccc(NNC2=Nc3ccccc3C2=O)cc1 [2-[(4-methylphenyl)hydrazo]-3-indolone]
- pEC50: 4.59

SMILES: CC1(C)CC(=O)C2=C(C1)OC(=N)C(C#N)[C@@]21C(=O)N(CC(N)=O)c2ccccc21 (stereo partly drawn) [2-[(4R)-2-amino-3-cyano-2',5-diketo-7,7-dimethyl-spiro[6,8-dihydrochromene-4,3'-indoline]-1'-yl]acetamide]
- pEC50: < 3.52

SMILES: N#CC1C(=N)OC2=C(C(=O)CCC2)[C@]12C(=O)N(CC(N)=O)c1ccccc12 (stereo partly drawn) [2-[(4R)-2-amino-3-cyano-2',5-diketo-spiro[7,8-dihydro-6H-chromene-4,3'-indoline]-1'-yl]acetamide]
- pEC50: < 3.52

SMILES: NC(=O)c1ccccc1N=CCC(=O)c1ccc(F)cc1 [2-[[(E)-3-(4-fluorophenyl)-3-keto-prop-1-enyl]amino]benzamide]
- pEC50: < 3.52

SMILES: COc1cccc(CN2C(=O)C3(C4=C(CCCC4=O)OC(=N)C3C#N)c3ccccc32)c1 (stereo unspecified) [2-amino-1'-(3-methoxybenzyl)-2',5-dioxo-1',2',5,6,7,8-hexahydrospiro[chromene-4,3'-indole]-3-carbonitrile]
- pEC50: < 3.52

SMILES: CC1(C)CC(=O)C2=C(C1)OC(=N)C(C#N)C21C(=O)N(CN2CCOCC2)c2ccccc21 (stereo unspecified) [2-amino-2',5-diketo-7,7-dimethyl-1'-(morpholinomethyl)spiro[6,8-dihydrochromene-4,3'-indoline]-3-carbonitrile]
- pEC50: < 3.52

SMILES: COc1ccc(C2C3=C(CCCC3=O)OC(=N)C2C#N)cc1OC (stereo unspecified) [2-amino-4-(3,4-dimethoxyphenyl)-5-keto-4,6,7,8-tetrahydrochromene-3-carbonitrile]
- pEC50: < 3.52

SMILES: COc1ccc(C2C3=C(CC(C)(C)CC3=O)OC(=N)C2C#N)cc1OC (stereo unspecified) [2-amino-4-(3,4-dimethoxyphenyl)-5-keto-7,7-dimethyl-6,8-dihydro-4H-chromene-3-carbonitrile]
- pEC50: < 3.52

SMILES: N#CC1=C2CCCCC2C(c2cccnc2)C(C#N)(C#N)C1=N (stereo unspecified) [2-amino-4-(3-pyridinyl)-4a,5,6,7-tetrahydro-4H-naphthalene-1,3,3-tricarbonitrile]
- pEC50: 4.76

SMILES: COc1ccc(C2C3=C(CC(C)(C)CC3=O)OC(=N)C2C#N)cc1 (stereo unspecified) [2-amino-4-(4-methoxyphenyl)-7,7-dimethyl-5-oxo-6,8-dihydro-4H-1-benzopyran-3-carbonitrile]
- pEC50: < 3.52

SMILES: COc1cc(OC)c(C2C3=C(CC(C)CC3=O)OC(=N)C2C#N)cc1OC (stereo unspecified) [2-amino-4-asaryl-5-keto-7-methyl-4,6,7,8-tetrahydrochromene-3-carbonitrile]
- pEC50: < 3.52

SMILES: N#CC1C(=N)OC2=C(C(=O)CCC2)C1c1ccccc1 (stereo unspecified) [2-amino-5-keto-4-phenyl-4,6,7,8-tetrahydrochromene-3-carbonitrile]
- pEC50: < 3.52

SMILES: COc1ccc(C2C3=C(CC(C)(C)CC3=O)OC(=N)C2C#N)c(OC)c1OC (stereo unspecified) [2-amino-5-keto-7,7-dimethyl-4-(2,3,4-trimethoxyphenyl)-6,8-dihydro-4H-chromene-3-carbonitrile]
- pEC50: < 3.52

SMILES: CC1(C)CC(=O)C2=C(C1)OC(=N)C(C#N)C2c1ccccc1 (stereo unspecified) [2-amino-5-keto-7,7-dimethyl-4-phenyl-6,8-dihydro-4H-chromene-3-carbonitrile]
- pEC50: < 3.52

SMILES: COc1ccc(C2C3=C(CC(C)CC3=O)OC(=N)C2C#N)c(OC)c1OC (stereo unspecified) [2-amino-5-keto-7-methyl-4-(2,3,4-trimethoxyphenyl)-4,6,7,8-tetrahydrochromene-3-carbonitrile]
- pEC50: < 3.52

SMILES: CC1CCC2=C(C#N)C(=N)C(C#N)(C#N)C(c3cccs3)C2C1 (stereo unspecified) [2-amino-6-methyl-4-(2-thienyl)-4a,5,6,7-tetrahydro-4H-naphthalene-1,3,3-tricarbonitrile]
- pEC50: 4.83

SMILES: CCOc1cc(C2C(C(C)=O)=C(C)OC(=N)C2C#N)cc(Br)c1O (stereo unspecified) [2-azanyl-4-(3-bromanyl-5-ethoxy-4-oxidanyl-phenyl)-5-ethanoyl-6-methyl-4H-pyran-3-carbonitrile]
- pEC50: 4.91

SMILES: N#CC1C(=N)OC2=C(C(=O)CCC2)C1c1cc2c(cc1Br)OCO2 (stereo unspecified) [2-azanyl-4-(6-bromanyl-1,3-benzodioxol-5-yl)-5-oxidanylidene-4,6,7,8-tetrahydrochromene-3-carbonitrile]
- pEC50: < 3.52

SMILES: N#CC1C(=N)OC2=C(C(=O)CC(c3ccco3)C2)C1c1ccc(OCc2c(F)cccc2Cl)cc1 (stereo unspecified) [2-azanyl-4-[4-[(2-chloranyl-6-fluoranyl-phenyl)methoxy]phenyl]-7-(furan-2-yl)-5-oxidanylidene-4,6,7,8-tetrahydrochromene-3-carbonitrile]
- pEC50: < 3.52

SMILES: O=C(O)c1cc(-c2ccc(C=C3NC(=O)N(c4ccc(Cl)cc4)C3=O)o2)ccc1Cl [2-chloranyl-5-[5-[(Z)-[1-(4-chlorophenyl)-2,5-bis(oxidanylidene)imidazolidin-4-ylidene]methyl]furan-2-yl]benzoic acid]
- pEC50: 4.41

SMILES: CC(N=Nc1ccc(Cl)c(C(=O)O)c1)c1ccc[nH]1 (stereo unspecified) [2-chloro-5-[2-[(1Z)-1-pyrrol-2-ylideneethyl]hydrazinyl]benzoic acid]
- pEC50: 3.82

SMILES: O=C(O)c1cc(-c2ccc(CN=Nc3ccc([N+](=O)[O-])cn3)o2)ccc1Cl [2-chloro-5-[5-[[(5-nitropyridin-2-yl)hydrazinylidene]methyl]furan-2-yl]benzoic acid]
- pEC50: 5.20

SMILES: CC1(C)CC(=O)C2=C(C1)OC(=N)C(C#N)C2c1cccc(OC(=O)c2ccco2)c1 (stereo unspecified) [2-furancarboxylic acid [3-(2-amino-3-cyano-7,7-dimethyl-5-oxo-6,8-dihydro-4H-1-benzopyran-4-yl)phenyl] ester]
- pEC50: < 3.52

SMILES: O=C1NC(=O)N(CCc2ccccc2)C(=O)C1=CNNC(=O)c1ccccc1O [2-hydroxy-N'-[(E)-[2,4,6-trioxo-1-(2-phenylethyl)-1,3-diazinan-5-ylidene]methyl]benzohydrazide]
- pEC50: 3.70

SMILES: COc1[nH]c(N=Cc2ccccc2)c(C#N)c1C#N [2-methoxy-5-[(phenylmethylene)amino]-1H-pyrrole-3,4-dicarbonitrile]
- pEC50: 5.25

SMILES: O=C1c2cccc3cccc(c23)C(=O)C1[N+](=O)[O-] [2-nitro-3-oxidanyl-phenalen-1-one]
- pEC50: 5.04

SMILES: C=CCOc1cccc(C2C(C(=O)c3cc4ccccc4o3)C(=O)C(=O)N2c2cc(C)on2)c1 (stereo unspecified) [3-(1-benzofuran-2-carbonyl)-4-hydroxy-1-(5-methyl-1,2-oxazol-3-yl)-2-(3-prop-2-enoxyphenyl)-2H-pyrrol-5-one]
- pEC50: 4.09

SMILES: Cc1cc(N2C(=O)C(=O)C(C(=O)c3cc4ccccc4o3)C2c2ccc([N+](=O)[O-])cc2)no1 (stereo unspecified) [3-(1-benzofuran-2-carbonyl)-4-hydroxy-1-(5-methyl-1,2-oxazol-3-yl)-2-(4-nitrophenyl)-2H-pyrrol-5-one]
- pEC50: 4.34
